The values that follow come from publication PMC4891657, “Orexin 2 Receptor Antagonism is Sufficient to Promote NREM and REM Sleep from Mouse to Man” (Scientific Reports, 2016).

Where two headings read alike, the source gives them in different places.

The test system of data set [1] is sleep/wake stages. Briefly: Polysomnography in telemetered wild-type and OX2R knockout mice. The note with it: 30 mg/kg oral. Format: in vivo, mouse.
Procedure: Polysomnography (PSG) responses to MK-1064 (30 mg/kg) were evaluated following oral administration during the late active phase (administered at Zeitgeber time [ZT] 20:00) either in wild-type or OX2R knockout telemetered mice.
(a) The mean time spent in active wake, light sleep (LS), SWS, and REM sleep during 30-min intervals was determined in wild-type (left panel; n = 5) and OX2R knockout (right panel; n = 7) mice following administration of MK-1064 30 mg/kg (open circles) relative to vehicle (20% vitamin E TPGS, orally; closed circles) during the late active phase (ZT: 20:00). Time points at which significant differences exist between vehicle and MK-1064 responses are indicated by grey vertical lines (*, **, ***p < 0.05, 0.01, 0.001, respectively; linear mixed-effects model for repeated measures).
Continuous PSG recordings were performed following oral MK-1064 or vehicle (20% vitamin E d-alpha tocopheryl polyethylene glycol 1000 succinate [TPGS]) administration. In rodents, electrocorticogram (ECoG) and electromyogram (EMG) and locomotor activity measured via radio-telemetry were scored in 10 second epochs to define light sleep (LS; no movement, moderate EMG tone, theta with <50% delta ECoG [0.5–4 Hz]), slow wave sleep (SWS; no gross movement, reduced EMG, >50% delta ECoG) and rapid eye movement sleep (REM; no movement, little to no EMG activity, primarily theta ECoG [4–7 Hz] activity)[42]. Scored data were then grouped and compiled according to condition (vehicle or compound treatment) averaged over the indicated times (30 minutes or 2 hours) and analyzed statistically as previously described[1][14][40][42]
In male wild-type and Hcrtr1 and 2 homozygous, double knockout mice (Taconic Farms, Germantown, NY), MK-1064 or vehicle was administered during the late active phase (ZT: 20:00, 4 hours before lights on). The effect of compound treatment was assessed using a counterbalanced crossover design in which all animals were alternately treated with drug and vehicle daily for 5 consecutive days with a 2-day intervening washout period. In both mice and rats, the mean time in active wake, LS, SWS and REM sleep was determined for each 30-minute interval. The level of significance for the differences between mean time spent in each stage between the vehicle- and compound-treated groups was determined by a linear mixed-effects model for repeated measures applied t-test, and mean within-subject change relative to vehicle over 2 hours following dosing was analyzed using within-subject ANOVA to determine main effects and one sample t-test to identify significant changes relative to vehicle.
The subject of data set [2] is sleep/wake stages. Briefly: Polysomnography in telemetered dogs. Type of data set: in vivo, dog.
Procedure: The mean time spent in sleep stages was determined in radio-telemetry–implanted mice, rats, and dogs, as described previously[1][14][40][42]. Continuous PSG recordings were performed following oral MK-1064 or vehicle (20% vitamin E d-alpha tocopheryl polyethylene glycol 1000 succinate [TPGS]) administration. In rodents, electrocorticogram (ECoG) and electromyogram (EMG) and locomotor activity measured via radio-telemetry were scored in 10 second epochs to define light sleep (LS; no movement, moderate EMG tone, theta with <50% delta ECoG [0.5–4 Hz]), slow wave sleep (SWS; no gross movement, reduced EMG, >50% delta ECoG) and rapid eye movement sleep (REM; no movement, little to no EMG activity, primarily theta ECoG [4–7 Hz] activity)[42]. Scored data were then grouped and compiled according to condition (vehicle or compound treatment) averaged over the indicated times (30 minutes or 2 hours) and analyzed statistically as previously described[1][14][40][42] […]
Mean times in active wake, NREM I, NREM II, and REM sleep were monitored continuously. Vehicle and compound treatment conditions were consolidated into 24-hour periods for each animal, and the mean time spent in each sleep stage for the 2 hours following treatment was determined and significance determined by t-test.
The nature of data set [3]: Plasma exposure in dogs after oral dosing. Format: in vivo, dog. As to conditions: for Cmax / Tmax / AUC(0-t): beagle, dog, plasma.
Data set [4] in a line: Pharmacokinetics, ascending single-dose study in healthy male subjects. Type of data set: in vivo. The note with it: human, plasma, single oral doses 5 to 250 mg; for half-life: male, po. As to the method: (§1) In the ascending single-dose study, doses of MK-1064 ranging from 5 to 250 mg corresponded with dose-dependent changes in measured plasma levels (Fig. 6a). […] The greatest effects were observed between 1 and 4 hours, and effects greatly diminished 8 hours following treatment, consistent with the time course of plasma concentrations of MK-1064.
(§2) MK-1064 safety, PK and PD were evaluated in a randomised, double-blind, placebo-controlled, alternating panel, single oral ascending-dose first-in-human study (see Fig. 5). Participants were unmedicated healthy male subjects (age 18–45 years) without a history of physical or mental illnesses or sleep abnormalities. Two panels received alternating single ascending oral doses of MK-1064 in up to 5 treatment periods (Panel A: 5, 25, 100 and 200 mg [fasting conditions], 25 mg [fed condition], or matching placebo; Panel B: 10, 50, 150 and 250 mg [all daytime administration], 50 mg [evening administration], or matching placebo). Within each period, subjects were randomized to active treatment (N = 6) and placebo (N = 2) groups. There was a minimum of 3 days between ascending doses occurring between alternating subject panels to enable safety data review; treatments within subject panels were separated by a minimum 7-day washout period. The safety and tolerability of MK-1064 were monitored throughout the study by repeated evaluations of AEs, clinical assessments (semi-recumbent and orthostatic vital signs measurements, 12-lead electrocardiograms (ECGs), physical examinations, neurologic examinations), and safety laboratory tests (chemistry, hematology, urinalysis).
During each treatment period, blood was collected for PK analysis pre-dose and at time points up to 72 hours post-dose. MK-1064 plasma concentrations were determined by reverse phase high-performance liquid chromatography and detected with tandem mass spectrometry. The lower limit of quantitation was 1 ng/mL and the linear calibration range was 1–1000 ng/mL. PK parameters were calculated with WinNonLin 5.2.1. Values below the assay limit of quantification were indicated with a zero value. PD effects on arousal and mood were assessed by the Karolinska Sleepiness Scale (KSS)[45] and Bond and Lader Visual Analogue Scale (VAS)[46] in exploratory endpoints.

Data set [5] is described as follows: Safety and tolerability, ascending single-dose study. Format: in vivo, human.
From the text: In the ascending single-dose study, 52 AEs were considered to be related to the study drug, the most common of which was somnolence/sleepiness, drowsiness, and tiredness (15 of 16 subjects dosed with MK-1064), consistent with the intended pharmacological activity. […] In the PSG study, 13 of the 20 subjects enrolled reported ≥1 clinical AE. Of 24 clinical AEs reported, 18 were considered to be related to study treatment, all of which were mild or moderate in intensity. One report of transient sleep paralysis following MK-1064 250 mg was noted, while the most common MK-1064-related AEs were headache (3 subjects), nightmares (2 subjects) and dizziness (1 subject) (Supplementary Table 2).
as §2

Another data set concerns somnolence / alertness. Briefly: Karolinska Sleepiness Scale and Bond and Lader VAS in healthy subjects. As to conditions: all single doses greater than 5 mg. Format: in vivo, human. Here is the method: as §1
Figure 6 MK-1064 dose-dependently promotes somnolence and attenuates arousal in healthy human subjects. (a) Plasma concentration of MK-1064 over time following administration of single doses of MK-1064 5–250 mg. (b) Somnolence, as measured by the KSS, and (c) alertness, as measured by the Bond and Lader VAS, over time following administration of single doses of MK-1064 (5–250 mg) or placebo in healthy human subjects (N = 20).
During each treatment period, blood was collected for PK analysis pre-dose and at time points up to 72 hours post-dose. MK-1064 plasma concentrations were determined by reverse phase high-performance liquid chromatography and detected with tandem mass spectrometry. The lower limit of quantitation was 1 ng/mL and the linear calibration range was 1–1000 ng/mL. PK parameters were calculated with WinNonLin 5.2.1. Values below the assay limit of quantification were indicated with a zero value. […]

On the set-up of data set [6]: method as in PMID 24376006. The note with it: dogs ref 29; cited from earlier work.
The mark [7] stands for this setting: wild-type mice, ZT 20:00, vs vehicle.

A word on the Cmax: it is the highest concentration seen after dosing. One may read the half-life as the time in which the quantity being followed falls by half.

For the compound `COc1ccc(CNC(=O)c2cc(-c3cncc(Cl)c3)cnc2-c2ccccn2)nc1OC` [MK-1064, 5″-chloro-N-[(5,6-dimethoxypyridin-2-yl)methyl]-2,2′:5′, 3″-terpyridine-3′-carbo xamide], in the data set on sleep/wake stages [1] (OX2R knockout mice, ZT 20:00), the “changes in wake, SWS and REM in OX2R knockout mice” value is recorded as “absent”. For the same compound, in the data set with sleep/wake stages [1] (wild-type mice, ZT 20:00), the “time following treatment with active wake reduction and significant increases in SWS and REM” value was “up to 3.5 hours”. For the same compound, in the data set with sleep/wake stages [1] (setting [7]), the “REM quantitated over 2 hours” value was “trend toward an increase”. The “changes in wake and SWS quantitated over 2 hours” value in the data set with sleep/wake stages [1] (setting [7]) was “reached significance”. Further, in the data set on sleep/wake stages [2] (1 mg/kg oral, 1 hour following administration vs vehicle), the “active wake (with increases in NREM I, NREM II and REM sleep)” value is “Significant active wake reductions”. In the data set on sleep/wake stages [2] (20 mg/kg oral, vs vehicle, increased at several later time points), the “REM sleep in the hour following administration” value was “not significantly increased”. Also, the “expected unbound drug levels at 1 hour (~Tmax)” value in data set [3] (20 mg/kg oral) is “approximately 4.4 μM”. For the same compound, the figures for the Cmax in data set [3] (1 mg/kg oral), in data set [3] (20 mg/kg oral) and in data set [4] were 1 µM, 15.3 µM and 0.37 to 8.28 µM, respectively. In addition, the Tmax in data set [3] (1 mg/kg oral) was 0.3 h; in data set [3] (20 mg/kg oral) it was 0.8 h; in data set [4] (read-out: median time of peak concentrations (Tmax)), 1 to 2 h. The AUC(0-t) in data set [3] (1 mg/kg oral, read-out: AUC0–24) worked out at 3.4 µM·h; in data set [3] (20 mg/kg oral, read-out: AUC0-24), 56.5 µM·h. For the same compound, the half-life lay within 1.6 to 4 h in data set [4] (read-out: alpha phase half-life) and 6.8 to 11.1 h in data set [4] (read-out: mean apparent terminal half-life). For the same compound, the “subjects who experienced headaches” value in data set [5] (ascending single-dose study) is given as “Nine”. The “suspected serious adverse reactions” value in data set [5] (ascending single-dose study) was “no suspected serious adverse reactions were observed”. For the same compound, the “AEs considered to be related to the study drug” value in data set [5] (ascending single-dose study, 5–250 mg) was 52. Further, the “subjects with somnolence/sleepiness, drowsiness, and tiredness” value in data set [5] (ascending single-dose study, subjects dosed with MK-1064) is 15 of 16. The tolerability result in data set [5] (both Phase I studies, healthy male subjects) is “well tolerated”. For the same compound, in the data set on somnolence / alertness, the “subject-reported somnolence (KSS) and drowsiness (alertness VAS)” value is “Dose-dependent increases”. The “minimum plasma concentration needed for sleep-promoting efficacy” value in data set [6] was 0.028 µM.
